Results published in the NIST ThermoML archive (doi:10.1021/je900284z).
Where “and” joins values, the source holds several entries; their conditions need not be identical. Equal entries are not always repeated. Numbers after ± are expanded uncertainties.

Details: Liquid; for viscosity: Falling or rolling sphere viscometry; for mass density: 101.33 kPa

SMILES: CC(C)CCCC(C)CCCC(C)CCCCC(C)CCCC(C)CCCC(C)C (stereo not given) [2,6,10,15,19,23-hexamethyltetracosane]
- viscosity (273.15 K, 100 kPa): 116 ± 3.9 mPa·s and 116.2 ± 3.9 mPa·s
- mass density (273.15 K): 821.58 ± 0.54 kg/m3
- viscosity (273.15 K, 600 kPa): 121.9 ± 4.2 mPa·s
- viscosity (273.15 K, 10600 kPa): 159.6 ± 6.6 mPa·s
- viscosity (273.15 K, 20600 kPa): 208 ± 10 mPa·s
- viscosity (273.15 K, 30700 kPa): 267.6 ± 15 mPa·s
- viscosity (273.15 K, 41400 kPa): 348.4 ± 23 mPa·s
- viscosity (273.15 K, 50500 kPa): 442.3 ± 33 mPa·s
- viscosity (283.15 K, 100 kPa): 59.25 ± 1.3 mPa·s and 59.27 ± 1.3 mPa·s
- mass density (283.15 K): 815.16 ± 0.55 kg/m3
- viscosity (283.15 K, 9600 kPa): 76.31 ± 1.9 mPa·s
- viscosity (283.15 K, 19900 kPa): 97.69 ± 2.9 mPa·s
- viscosity (283.15 K, 25810 kPa): 115.2 ± 3.8 mPa·s
- viscosity (283.15 K, 50880 kPa): 206.5 ± 10 mPa·s
- viscosity (283.15 K, 76760 kPa): 360.6 ± 24 mPa·s
- viscosity (283.15 K, 100400 kPa): 573.5 ± 47 mPa·s
- mass density (288.15 K): 811.95 ± 0.55 kg/m3
- viscosity (293.15 K, 100 kPa): 35.97 ± 0.8 mPa·s and 35.96 ± 0.8 mPa·s
- mass density (293.15 K): 808.74 ± 0.56 kg/m3
- viscosity (298.15 K, 100 kPa): 28.45 ± 0.63 mPa·s [middle of 6 runs]
- mass density (298.15 K): 805.55 ± 0.56 kg/m3
- viscosity (298.15 K, 700 kPa): 28.57 ± 0.63 mPa·s
- viscosity (298.15 K, 800 kPa): 28.67 ± 0.64 mPa·s
- viscosity (298.15 K, 10800 kPa): 35.77 ± 0.8 mPa·s
- viscosity (298.15 K, 20600 kPa): 44.2 ± 0.98 mPa·s
- viscosity (298.15 K, 26000 kPa): 49.37 ± 1.1 mPa·s
- viscosity (298.15 K, 30800 kPa): 54.49 ± 1.2 mPa·s
- viscosity (298.15 K, 40200 kPa): 65.84 ± 1.5 mPa·s
- viscosity (298.15 K, 50100 kPa): 80.08 ± 2.1 mPa·s
- viscosity (298.15 K, 50600 kPa): 81.24 ± 2.1 mPa·s
- viscosity (298.15 K, 51600 kPa): 84.03 ± 2.2 mPa·s
- viscosity (298.15 K, 60700 kPa): 98.21 ± 2.9 mPa·s
- viscosity (298.15 K, 70700 kPa): 118.8 ± 4 mPa·s
- viscosity (298.15 K, 74700 kPa): 129.5 ± 4.7 mPa·s
- viscosity (298.15 K, 75800 kPa): 130.3 ± 4.7 mPa·s
- viscosity (298.15 K, 80500 kPa): 142.3 ± 5.5 mPa·s
- viscosity (298.15 K, 98800 kPa): 200.7 ± 9.6 mPa·s
- viscosity (298.15 K, 100100 kPa): 201.8 ± 9.7 mPa·s
- viscosity (298.15 K, 125900 kPa): 315.8 ± 20 mPa·s
- viscosity (298.15 K, 150000 kPa): 465.7 ± 35 mPa·s
- viscosity (298.15 K, 150100 kPa): 473.5 ± 36 mPa·s
- viscosity (303.15 K, 100 kPa): 22.58 ± 0.5 mPa·s and 22.86 ± 0.51 mPa·s and 22.84 ± 0.51 mPa·s
- mass density (303.15 K): 802.34 ± 0.57 kg/m3
- viscosity (313.15 K, 100 kPa): 15.16 ± 0.34 mPa·s [middle of 6 runs]
- mass density (313.15 K): 795.93 ± 0.58 kg/m3
- viscosity (313.15 K, 800 kPa): 15.15 ± 0.34 mPa·s
- viscosity (313.15 K, 10700 kPa): 18.58 ± 0.41 mPa·s
- viscosity (313.15 K, 20600 kPa): 22.64 ± 0.5 mPa·s
- viscosity (313.15 K, 30700 kPa): 27.33 ± 0.61 mPa·s
- viscosity (313.15 K, 40500 kPa): 32.69 ± 0.73 mPa·s
- viscosity (313.15 K, 50200 kPa): 39.01 ± 0.87 mPa·s
- viscosity (313.15 K, 60600 kPa): 46.76 ± 1 mPa·s
- viscosity (313.15 K, 70600 kPa): 55.53 ± 1.2 mPa·s
- viscosity (313.15 K, 80600 kPa): 65.68 ± 1.5 mPa·s
- viscosity (313.15 K, 91700 kPa): 78.58 ± 2 mPa·s
- viscosity (313.15 K, 112400 kPa): 108.9 ± 3.5 mPa·s
- viscosity (313.15 K, 131700 kPa): 145.3 ± 5.7 mPa·s
- viscosity (313.15 K, 151600 kPa): 192.8 ± 9 mPa·s
- viscosity (313.15 K, 151900 kPa): 196.8 ± 9.3 mPa·s
- viscosity (313.15 K, 168600 kPa): 250 ± 14 mPa·s
- viscosity (313.15 K, 175400 kPa): 276.7 ± 16 mPa·s
- viscosity (313.15 K, 190000 kPa): 336.9 ± 22 mPa·s
- viscosity (313.15 K, 190100 kPa): 340.1 ± 22 mPa·s
- viscosity (313.15 K, 199800 kPa): 379.2 ± 26 mPa·s
- viscosity (313.15 K, 210400 kPa): 433.8 ± 32 mPa·s
- viscosity (313.15 K, 227900 kPa): 549.9 ± 45 mPa·s
- viscosity (313.15 K, 241700 kPa): 669.3 ± 59 mPa·s
- viscosity (313.15 K, 261500 kPa): 863.8 ± 83 mPa·s
- viscosity (313.15 K, 279800 kPa): 1065 ± 110 mPa·s
- viscosity (313.15 K, 300500 kPa): 1395 ± 160 mPa·s
- viscosity (323.15 K, 100 kPa): 10.73 ± 0.24 mPa·s and 10.71 ± 0.24 mPa·s and 10.69 ± 0.24 mPa·s
- mass density (323.15 K): 789.53 ± 0.58 kg/m3
- viscosity (333.15 K, 100 kPa): 7.856 ± 0.17 mPa·s and 7.861 ± 0.17 mPa·s
- mass density (333.15 K): 783.14 ± 0.59 kg/m3
- viscosity (338.15 K, 100 kPa): 6.785 ± 0.15 mPa·s
- viscosity (338.15 K, 9700 kPa): 8.064 ± 0.18 mPa·s
- viscosity (338.15 K, 22100 kPa): 9.958 ± 0.22 mPa·s
- viscosity (338.15 K, 30100 kPa): 11.36 ± 0.25 mPa·s
- viscosity (338.15 K, 40600 kPa): 13.4 ± 0.3 mPa·s
- viscosity (338.15 K, 40800 kPa): 13.45 ± 0.3 mPa·s
- viscosity (338.15 K, 50300 kPa): 15.55 ± 0.34 mPa·s
- viscosity (338.15 K, 60000 kPa): 17.98 ± 0.4 mPa·s
- viscosity (338.15 K, 60700 kPa): 17.92 ± 0.4 mPa·s
- viscosity (338.15 K, 80700 kPa): 24.24 ± 0.54 mPa·s
- viscosity (338.15 K, 100600 kPa): 32.02 ± 0.71 mPa·s
- viscosity (338.15 K, 120400 kPa): 41.62 ± 0.92 mPa·s
- viscosity (338.15 K, 140400 kPa): 53.67 ± 1.1 mPa·s
- viscosity (338.15 K, 160300 kPa): 69.03 ± 1.6 mPa·s
- viscosity (338.15 K, 175300 kPa): 82.43 ± 2.1 mPa·s
- viscosity (338.15 K, 199800 kPa): 111 ± 3.6 mPa·s
- viscosity (338.15 K, 226500 kPa): 150.6 ± 6 mPa·s
- viscosity (338.15 K, 246000 kPa): 184.6 ± 8.4 mPa·s
- viscosity (338.15 K, 255100 kPa): 201.5 ± 9.6 mPa·s
- viscosity (338.15 K, 274800 kPa): 252.5 ± 14 mPa·s
- viscosity (338.15 K, 275200 kPa): 246.9 ± 13 mPa·s
- viscosity (338.15 K, 300000 kPa): 321.5 ± 20 mPa·s
- viscosity (338.15 K, 303600 kPa): 337.4 ± 22 mPa·s
- viscosity (338.15 K, 324900 kPa): 416.3 ± 30 mPa·s
- viscosity (338.15 K, 350600 kPa): 540.2 ± 44 mPa·s
- viscosity (338.15 K, 373000 kPa): 677.2 ± 60 mPa·s
- viscosity (343.15 K, 100 kPa): 5.979 ± 0.13 mPa·s [middle of 4 runs]
- mass density (343.15 K): 776.77 ± 0.6 kg/m3
- viscosity (348.15 K, 100 kPa): 5.281 ± 0.12 mPa·s and 5.28 ± 0.12 mPa·s and 5.248 ± 0.12 mPa·s
- viscosity (348.15 K, 9700 kPa): 6.195 ± 0.14 mPa·s
- viscosity (348.15 K, 20600 kPa): 7.41 ± 0.16 mPa·s
- viscosity (348.15 K, 30800 kPa): 8.689 ± 0.19 mPa·s
- viscosity (348.15 K, 40900 kPa): 10.14 ± 0.22 mPa·s
- viscosity (348.15 K, 50400 kPa): 11.63 ± 0.26 mPa·s
- viscosity (348.15 K, 60400 kPa): 13.25 ± 0.29 mPa·s
- viscosity (348.15 K, 60500 kPa): 13.45 ± 0.3 mPa·s
- viscosity (348.15 K, 70300 kPa): 15.23 ± 0.34 mPa·s
- viscosity (348.15 K, 70900 kPa): 15.5 ± 0.34 mPa·s
- viscosity (348.15 K, 80100 kPa): 17.89 ± 0.4 mPa·s
- viscosity (348.15 K, 80300 kPa): 17.39 ± 0.39 mPa·s
- viscosity (348.15 K, 90300 kPa): 19.95 ± 0.44 mPa·s
- viscosity (348.15 K, 90600 kPa): 20.48 ± 0.45 mPa·s
- viscosity (348.15 K, 100100 kPa): 22.65 ± 0.5 mPa·s
- viscosity (348.15 K, 100800 kPa): 23.18 ± 0.51 mPa·s
- viscosity (348.15 K, 200500 kPa): 71.69 ± 1.7 mPa·s
- viscosity (348.15 K, 225500 kPa): 93.81 ± 2.7 mPa·s
- viscosity (348.15 K, 250300 kPa): 121.8 ± 4.2 mPa·s
- viscosity (348.15 K, 275300 kPa): 157.1 ± 6.4 mPa·s
- viscosity (348.15 K, 300000 kPa): 201.5 ± 9.6 mPa·s
- viscosity (348.15 K, 319700 kPa): 244.4 ± 13 mPa·s
- viscosity (348.15 K, 339600 kPa): 295.8 ± 18 mPa·s
- viscosity (348.15 K, 359000 kPa): 356.2 ± 24 mPa·s
- viscosity (348.15 K, 378600 kPa): 428.5 ± 31 mPa·s
- viscosity (353.15 K, 100 kPa): 4.692 ± 0.1 mPa·s and 4.695 ± 0.1 mPa·s
- mass density (353.15 K): 770.42 ± 0.61 kg/m3
- mass density (363.15 K): 764.06 ± 0.62 kg/m3
